IC50 data for 27 compounds are collected here from patent US8741934B2, “Inhibitors of ion channels” (Pfizer Limited, priority 2007, dated 2014).

T1 sequence (Q9NY46 whole entry): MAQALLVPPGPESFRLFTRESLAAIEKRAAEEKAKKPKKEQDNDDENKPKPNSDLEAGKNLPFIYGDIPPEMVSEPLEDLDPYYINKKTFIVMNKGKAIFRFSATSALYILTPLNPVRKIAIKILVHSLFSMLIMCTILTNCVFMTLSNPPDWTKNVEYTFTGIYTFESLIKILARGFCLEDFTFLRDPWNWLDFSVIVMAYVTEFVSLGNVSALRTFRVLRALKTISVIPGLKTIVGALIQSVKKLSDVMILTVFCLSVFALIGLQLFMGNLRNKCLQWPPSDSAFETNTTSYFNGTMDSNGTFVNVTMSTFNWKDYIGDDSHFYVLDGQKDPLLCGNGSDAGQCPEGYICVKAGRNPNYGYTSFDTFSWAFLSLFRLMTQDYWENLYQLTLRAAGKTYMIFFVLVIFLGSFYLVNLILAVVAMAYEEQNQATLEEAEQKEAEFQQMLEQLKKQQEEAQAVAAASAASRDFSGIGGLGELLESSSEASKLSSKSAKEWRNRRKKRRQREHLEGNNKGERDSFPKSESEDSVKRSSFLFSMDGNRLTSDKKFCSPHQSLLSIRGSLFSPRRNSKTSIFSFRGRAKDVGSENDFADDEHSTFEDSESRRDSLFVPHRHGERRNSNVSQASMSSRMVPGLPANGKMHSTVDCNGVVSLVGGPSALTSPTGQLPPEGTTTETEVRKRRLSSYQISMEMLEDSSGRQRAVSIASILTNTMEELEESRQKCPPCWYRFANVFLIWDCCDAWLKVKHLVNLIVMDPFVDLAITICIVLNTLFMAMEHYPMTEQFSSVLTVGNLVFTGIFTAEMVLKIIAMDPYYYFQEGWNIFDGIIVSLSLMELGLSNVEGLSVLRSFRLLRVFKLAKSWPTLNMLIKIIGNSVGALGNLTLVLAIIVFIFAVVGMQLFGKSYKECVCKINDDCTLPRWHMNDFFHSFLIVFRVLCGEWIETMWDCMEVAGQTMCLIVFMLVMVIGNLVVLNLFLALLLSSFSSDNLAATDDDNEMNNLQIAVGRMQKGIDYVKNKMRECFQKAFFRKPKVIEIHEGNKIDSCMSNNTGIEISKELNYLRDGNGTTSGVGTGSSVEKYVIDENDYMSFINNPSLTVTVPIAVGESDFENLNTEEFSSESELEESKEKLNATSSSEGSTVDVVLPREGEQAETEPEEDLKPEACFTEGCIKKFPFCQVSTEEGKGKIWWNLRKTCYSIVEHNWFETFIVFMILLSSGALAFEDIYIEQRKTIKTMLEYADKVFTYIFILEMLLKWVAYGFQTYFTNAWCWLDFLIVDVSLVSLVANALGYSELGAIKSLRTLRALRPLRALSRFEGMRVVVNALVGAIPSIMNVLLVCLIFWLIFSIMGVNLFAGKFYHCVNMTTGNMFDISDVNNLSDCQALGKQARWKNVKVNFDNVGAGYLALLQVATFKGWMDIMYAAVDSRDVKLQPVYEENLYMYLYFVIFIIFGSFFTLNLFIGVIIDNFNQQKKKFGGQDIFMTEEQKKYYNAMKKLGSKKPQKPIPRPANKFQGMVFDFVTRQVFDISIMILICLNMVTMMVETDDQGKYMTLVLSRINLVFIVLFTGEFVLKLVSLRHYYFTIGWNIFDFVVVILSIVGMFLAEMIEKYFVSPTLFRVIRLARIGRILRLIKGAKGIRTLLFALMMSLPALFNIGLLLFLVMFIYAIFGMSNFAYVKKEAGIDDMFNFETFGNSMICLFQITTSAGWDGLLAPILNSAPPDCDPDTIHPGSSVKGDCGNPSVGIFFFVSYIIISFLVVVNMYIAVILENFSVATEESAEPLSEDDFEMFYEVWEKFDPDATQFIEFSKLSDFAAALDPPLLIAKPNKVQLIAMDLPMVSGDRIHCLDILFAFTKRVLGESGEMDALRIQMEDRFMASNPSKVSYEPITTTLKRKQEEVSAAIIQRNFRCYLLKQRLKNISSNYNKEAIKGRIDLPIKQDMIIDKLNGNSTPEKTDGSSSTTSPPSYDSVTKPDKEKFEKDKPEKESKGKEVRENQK

This assay addresses T1, hSCN3A sodium channels (Homo sapiens, UniProt Q9NY46).
T1 construct: expressed in transfected cells
The assay is described as follows: hSCN3A electrophysiology, whole-cell patch-clamp or PatchXpress 7000, estimated IC-50 (Table B). It is filed as cell-based. The settings on record: estimated IC-50; hSCN3A cells, whole-cell patch-clamp or PatchXpress 7000; read-out: SCN3A EIC-50. Here is the method:
Human Embryonic Kidney (HEK) cells were transfected with an hSCN3A construct using lipofectamine reagent (Invitrogen), using standard techniques. […] Clones were screened for expression using the whole-cell voltage-clamp technique.
HEK cells stably transfected with hSCN3A were maintained in DMEM medium supplemented with 10% heat-inactivated fetal bovine serum and 400 μg/ml G418 sulfate in an incubator at 37° C. with a humidified atmosphere of 10% CO2. […] For electrophysiological studies, cells were removed from the culture flask by brief trypsinization and replated at low density onto glass cover slips. Cells were typically used for electrophysiological experiments within 24 to 72 h after plating.
All recordings were made at room temperature (22-24° C.) using AXOPATCH 200B amplifiers and PCLAMP software (Axon Instruments, Burlingame, Calif.) or PatchXpress 7000 hardware and associated software (Axon Instruments, Burlingame, Calif.).
Current records were acquired at 20 to 50 KHz and filtered at 5 to 10 KHz.
HEK cells stably transfected with hSCN3A were viewed under Hoffman contrast optics and placed in front of an array of flow pipes emitting either control or compound-containing extracellular solutions. All compounds were dissolved in dimethyl sulfoxide to make 10 mM stock solutions, which were then diluted into extracellular solution to attain the final concentrations desired.
The voltage-dependence of inactivation was determined by applying a series of depolarizing prepulses (8 sec long in 10 mV increments) from a negative holding potential. The voltage was then immediately stepped to 0 mV to assess the magnitude of the sodium current. Currents elicited at 0 mV were plotted as a function of prepulse potential to allow estimation of the voltage midpoint of inactivation (V1/2). Cells were then voltage clamped at the empirically determined V1/2.
Compounds were tested for their ability to inhibit hSCN3A sodium channels by activating the channel with a 20 msec voltage step to 0 mV following an 8 second conditioning prepulse to the empirically determined V1/2 (Table B). Compound effect (% inhibition) was determined by difference in current amplitude before and after application of test compounds. […] Inhibition values <20% and >80% were excluded from the calculation.
In some cases electrophysiological assays were conducted with PatchXpress 7000 hardware and associated software (Molecular Devices Corp) (Table B). All assay buffers and solutions were identical to those used in conventional whole-cell voltage clamp experiments described above. hSCN3A cells were grown as above to 50%-80% confluency and harvested by trypsinization. Trypsinized cells were washed and resuspended in extracellular buffer at a concentration of 1×10^6 cells/ml. The onboard liquid handling facility of the PatchXpress was used for dispensing cells and application of test compounds. Determination of the voltage midpoint of inactivation was as described for conventional whole-cell recordings. Cells were then voltage-clamped to the empirically determined V1/2 and current was activated by a 20 msec voltage step to 0 mV.
As for `O=C(NCCc1cccc(Cl)c1)c1ccc(S(=O)(=O)Nc2nccs2)cc1` [Example 70, N-[2-(3-chlorophenyl)ethyl]-4-[(1,3-thiazol-2-ylamino)sulfonyl]benzamide], the IC50 was over 300 nM.

For the compound `O=C(NCc1ccc(C(F)(F)F)c(Cl)c1)c1ccc(S(=O)(=O)Nc2nccs2)c(F)c1` [Example 306, N-[3-chloro-4-(trifluoromethyl)benzyl]-3-fluoro-4-[(1,3-thiazol-2-ylamino)sulfonyl]benzamide], the IC50 is 40 nM.

`Cc1cccc(OC2CCCN(C(=O)c3ccc(S(=O)(=O)Nc4nccs4)cc3)C2)c1` (stereo not drawn) [Example 51, 4-{[3-(3-Methylphenoxy)piperidin-1-yl]carbonyl}-N-1,3-thiazol-2-ylbenzenesulfonamide]: the IC50 is 6580 nM.

For `O=C(NCc1cc(C(F)(F)F)ccc1Cl)c1ccc(S(=O)(=O)Nc2nccs2)cc1` [Example 120, N-[2-chloro-5-(trifluoromethyl)benzyl]-4-[(1,3-thiazol-2-ylamino)sulfonyl]benzamide], the IC50 was 500 nM.

On to `O=C(c1ccc(S(=O)(=O)Nc2nccs2)cc1)N1CCCC1Cc1cccc(Cl)c1` (stereo not drawn) [Example 279, 4-{[2-(3-Chlorobenzyl)pyrrolidin-1-yl]carbonyl}-N-1,3-thiazol-2-yl-benzenesulfonamide], for which the IC50 is 2200 nM.

For `Cc1cc(Cl)ccc1CNC(=O)c1ccc(S(=O)(=O)Nc2nccs2)cc1` [Example 414, N-(4-chloro-2-methylbenzyl)-4-[(1,3-thiazol-2-ylamino)sulfonyl] benzamide], the IC50 was 240 nM.

As to `O=C(NCc1ccc(C(F)(F)F)c(F)c1)c1ccc(S(=O)(=O)Nc2nccs2)c(F)c1` [Example 304, 3-Fluoro-N-[3-fluoro-4-(trifluoromethyl)benzyl]-4-[(1,3-thiazol-2-yl-amino)sulfonyl]benzamide], the IC50 was 70 nM.

On to `O=C(NCc1ccc(F)c(Cl)c1)c1ccc(S(=O)(=O)Nc2ncc(Cl)s2)c(Cl)c1` [Example 363, 3-Chloro-N-(3-chloro-4-fluorobenzyl)-4-{[(5-chloro-1,3-thiazol-2-yl)amino]sulfonyl} benzamide], for which the IC50 was 1200 nM.

Take `COC(=O)c1csc(NS(=O)(=O)c2ccc(C(=O)NCc3ccc(C(F)(F)F)cc3)cc2)n1` [Example 17, Methyl 2-({[4-({[4-(trifluoromethyl)benzyl]amino}carbonyl)phenyl]sulfonyl}amino)-1,3-thiazole-4-carboxylate]: the IC50 was 2940 nM.

On to `O=C(NCc1ccc(C(F)(F)F)cc1)c1ccc(S(=O)(=O)Nc2cncs2)cc1` [Example 14, 4-[(1,3-Thiazol-5-ylamino)sulfonyl]-N-[4-(trifluoromethyl)benzyl]benzamide], for which the IC50 was 28100 nM.

As to `CC(CNC(=O)c1ccc(S(=O)(=O)Nc2nccs2)cc1)c1ccc(Cl)cc1` (stereo not drawn) [Example 133, N-[2-(4-chlorophenyl)propyl]-4-[(1,3-thiazol-2-ylamino)sulfonyl]benzamide], the IC50 was 1150 nM.

As for `COc1cccc(CNC(=O)c2ccc(S(=O)(=O)Nc3nccs3)cc2)c1` [Example 170, N-(3-methoxybenzyl)-4-[(1,3-thiazol-2-ylamino)sulfonyl]benzamide], the IC50 is 3920 nM.

For `CC(NC(=O)c1ccc(S(=O)(=O)Nc2ncc(Cl)s2)cc1)c1ccc(C(F)(F)F)cc1` (stereo not drawn) [Example 44, 4-{[(5-Chloro-1,3-thiazol-2-yl)amino]sulfonyl}-N-{1-[4-(trifluoromethyl)phenyl]ethyl}benzamide], the IC50 was 270 nM.

Consider `O=C(NCc1cccc(OC(F)F)c1)c1ccc(S(=O)(=O)Nc2nccs2)cc1` [Example 63, N-[3-(difluoromethoxy)benzyl]-4-[(1,3-thiazol-2-ylamino)sulfonyl]benzamide], for which the IC50 was 1090 nM.

In the case of `O=C(NCc1ccc(F)cc1)c1ccc(S(=O)(=O)Nc2nccs2)cc1` [Example 92, N-(4-fluorobenzyl)-4-[(1,3-thiazol-2-ylamino)sulfonyl]benzamide], the IC50 is 580 nM.

For `CC(CNC(=O)c1ccc(S(=O)(=O)Nc2nccs2)cc1)Oc1ccccc1Cl` (stereo not drawn) [Example 147, N-[2-(2-chlorophenoxy)propyl]-4-[(1,3-thiazol-2-ylamino)sulfonyl]benzamide], the IC50 is 2520 nM.

For `O=C(NCCNc1ccc(Cl)cc1)c1ccc(S(=O)(=O)Nc2nccs2)cc1` [Example 385, N-{2-[(4-chlorophenyl)amino]ethyl}-4-[(1,3-thiazol-2-ylamino)sulfonyl]benzamide], the IC50 was 780 nM.

With `CN(Cc1ccc(C(F)(F)F)cc1)C(=O)c1ccc(S(=O)(=O)Nc2ncc(Cl)s2)cc1` [Example 41, 4-{[(5-Chloro-1,3-thiazol-2-yl)amino]sulfonyl}-N-methyl-N-[4-(trifluoromethyl)benzyl]benzamide], the IC50 was 2350 nM.

For the compound `N#Cc1cc(CNC(=O)c2ccc(S(=O)(=O)Nc3nccs3)cc2)ccc1F` [Example 55, N-(3-cyano-4-fluorobenzyl)-4-[(1,3-thiazol-2-ylamino)sulfonyl]benzamide], the IC50 was 1410 nM.

As to `O=C(NCc1ccc(C(F)(F)F)cc1)c1ccc(S(=O)(=O)Nc2ccn[nH]2)cc1` [Example 24, 4-[(1H-Pyrazol-5-ylamino)sulfonyl]-N-[4-(trifluoromethyl)benzyl]benzamide], the IC50 is over 10000 nM.

As to `O=C(NCc1cccc(C(F)(F)F)c1F)c1ccc(S(=O)(=O)Nc2nccs2)cc1` [Example 392, N-[2-fluoro-3-(trifluoromethyl)benzyl]-4-[(1,3-thiazol-2-ylamino)sulfonyl]benzamide], the IC50 was 230 nM.

Take `Cc1ccc(OC2CCCN(C(=O)c3ccc(S(=O)(=O)Nc4nccs4)cc3)C2)cc1` (stereo not drawn) [Example 249, 4-{[3-(4-mMethylphenoxy)piperidin-1-yl]carbonyl}-N-1,3-thiazol-2-yl-benzenesulfonamide]: the IC50 is 1660 nM.

For `O=C(NCc1ccc(OC(F)(F)F)c(F)c1)c1ccc(S(=O)(=O)Nc2nccs2)c(F)c1` [Example 305, 3-Fluoro-N-[3-fluoro-4-(trifluoromethoxy)benzyl]-4-[(1,3-thiazol-2-ylamino)sulfonyl]benzamide], the IC50 was 60 nM.

Turning to `CC(C)(C)CCNC(=O)c1ccc(S(=O)(=O)Nc2ncc(Cl)s2)c(F)c1` [Example 389, 4-{[(5-Chloro-1,3-thiazol-2-yl)amino]sulfonyl}-N-(3,3-dimethylbutyl)-3-fluorobenzamide], the IC50 was 610 nM.

Regarding `O=C(NCc1ccc(C(F)(F)F)cc1)c1ccc(S(=O)(=O)Nc2ncc(Cl)s2)cc1F` [Example 352, 4-{[(5-Chloro-1,3-thiazol-2-yl)amino]sulfonyl}-2-fluoro-N-[4-(trifluoromethyl)benzyl]benzamide], the IC50 is 200 nM.

`N#CCCN(Cc1ccccc1)C(=O)c1ccc(S(=O)(=O)Nc2nccs2)cc1` [Example 218, N-benzyl-N-(2-cyanoethyl)-4-[(1,3-thiazol-2-yl-amino)sulfonyl]benzamide]: the IC50 was 21200 nM.

With `O=C(c1ccc(S(=O)(=O)Nc2nccs2)cc1)N1CCO[C@@H]2Cc3ccccc3[C@@H]21` [Example 53, 4-[(4aS,9aR)-2,3,9,9a-tetrahydroindeno[2,1-b][1,4]oxazin-4(4aH)-ylcarbonyl]-N-1,3-thiazol-2-ylbenzenesulfonamide], the IC50 was 2860 nM.
